Reference: patent US10844044B2 (Vanderbilt University, priority 2018, dated 2020)
Where two headings read alike, the source gives them in different places.

Experiments:
[1] = test system: MV4:11 human cancer cell lines; assay: Anti-proliferative activity, CellTiter-Glo viability assay, 7 day protocol; assay type: cell-based; conditions: Homo sapiens, MV4-11, 168 h, MV4:11 cells, 7 day incubation, read-out: GI50 on cellular proliferation of MV4:11 human cancer cell lines
Outline: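 MV4:11 cells seeded at 3600 cells/ml and exposed to compounds for 7 days, 0.1% DMSO final. Viability measured by CellTiter-Glo luminescence. GI50 from three biological replicates, each in technical triplicate, given as mean ± S.E.M.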

[2] = molecular target: WDR5 (Homo sapiens (Human), UniProt P61964); assay: TR-FRET binding assay (displacement of 10mer-Thr-FAM probe from WDR5)
[3] = read-out: Ki for Inhibition of WDR5 by TR-FRET assay, TR-FRET, 10mer-Thr-FAM probe, WDR5-His tag 2 nM, pH 7.0
[4] = read-out: Ki for Inhibition of WDR5 by TR-FRET assay

SMILES: COc1ccnc(CNC(=O)c2cc(Cn3ccn(C)c3=N)cc(-c3ccncc3C)c2)c1 [Example 8, 3-((2-Imino-3-methyl-2,3-dihydro-1H-imidazol-1-yl)methyl)-N-((4-methoxypyridin-2-yl)methyl)-5-(3-methylpyridin-4-yl)benzamide]
- GI50 [1]: 170 nM
- Ki [2, 3]: 0.27 nM

SMILES: CCn1cc(-c2cc(CN3CCOC3=N)cc(C(=O)NCc3ccc(F)c(C)c3)c2)c(C(F)(F)F)n1 [Example 295, 3-(1-Ethyl-3-(trifluoromethyl)-1H-pyrazol-4-yl)-N-(4-fluoro-3-methylbenzyl)-5-((2-iminooxazolidin-3-yl)methyl)benzamide]
- GI50 [1]: < 100 nM
- Ki [2, 4]: < 0.1 nM

SMILES: COc1cc([C@@H](NC(=O)c2cc(Cn3ccn(C)c3=N)cc(-c3cn(C)nc3C(F)(F)F)c2)C2CC2)ccc1F [Example 207]
- GI50 [1]: < 100 nM
- Ki [2, 3]: < 0.1 nM

SMILES: Cc1cc([C@@H](NC(=O)c2cc(CN3CCCC3=N)cc(-c3ccc(F)cc3C#N)c2)C2CC2)ccc1F [Example 333, (S)-2′-Cyano-N-(cyclopropyl(4-fluoro-3-methylphenyl)methyl)-4′-fluoro-5-((2-iminopyrrolidin-1-yl)methyl)-[1,1′-biphenyl]-3-carboxamide]
- GI50 [1]: 520 nM
- Ki [2, 3]: 0.39 nM

SMILES: Cc1cc([C@@H](NC(=O)c2cc(Cn3ccn(C)c3=N)cc(C3CC3)c2)C2CC2)ccc1F [Example 139, (S)-3-Cyclopropyl-N-(cyclopropyl(4-fluoro-3-methylphenyl)methyl)-5-((2-imino-3-methyl-2,3-dihydro-1H-imidazol-1-yl)methyl)benzamide]
- GI50 [1]: 730 nM
- Ki [2, 4]: 0.18 nM

SMILES: Cn1cc(-c2cc(CN3CCCC3=N)cc(C(=O)N[C@H](c3ccc(F)c(F)c3)C3CC3)c2)c(C(F)(F)F)n1 [Example 341, (S)—N-(Cyclopropyl(3,4-difluorophenyl)methyl)-3-((2-iminopyrrolidin-1-yl)methyl)-5-(1-methyl-3-(trifluoromethyl)-1H-pyrazol-4-yl)benzamide]
- GI50 [1]: 100 nM
- Ki [2, 3]: 0.35 nM

SMILES: COc1cc(CNC(=O)c2cc(Cn3ccn(C)c3=N)cc(-c3c(C)ccc4[nH]ncc34)c2)cc(OC)c1 [Example 35, N-(3,5-Dimethoxybenzyl)-3-((2-imino-3-methyl-2,3-dihydro-1H-imidazol-1-yl)methyl)-5-(5-methyl-1H-indazol-4-yl)benzamide]
- GI50 [1]: 9000 nM
- Ki [2, 3]: 1.3 nM

SMILES: Cn1ccn(Cc2cc(C(=O)NC(CC(=O)O)c3ccc(Cl)c(Cl)c3)cc(-c3ccc(F)cc3C(F)(F)F)c2)c1=N (stereo not shown) [Example 84, 3-(3,4-Dichlorophenyl)-3-(4′-fluoro-5-((2-imino-3-methyl-2,3-dihydro-1H-imidazol-1-yl)methyl)-2′-(trifluoromethyl)-[1,1′-biphenyl]-3-carboxamido)propanoic acid]
- GI50 [1]: 2100 nM
- Ki [2, 3]: 0.12 nM

SMILES: Cc1cc(CNC(=O)c2cc(Cn3ccn(C)c3=N)cc(OC(F)(F)F)c2)ccc1Cl [Example 147, N-(4-Chloro-3-methylbenzyl)-3-((2-imino-3-methyl-2,3-dihydro-1H-imidazol-1-yl)methyl)-5-(trifluoromethoxy)benzamide]
- GI50 [1]: 840 nM
- Ki [2, 3]: 0.37 nM

SMILES: CCn1cc(-c2cc(Cn3ccsc3=N)cc(C(=O)N[C@H](c3ccc(F)c(OC)c3)C3CC3)c2)c(C(F)(F)F)n1 [Example 328, (S)—N-(Cyclopropyl(4-fluoro-3-methoxyphenyl)methyl)-3-(1-ethyl-3-(trifluoromethyl)-1H-pyrazol-4-yl)-5-((2-iminothiazol-3(2H)-yl)methyl)benzamide]
- GI50 [1]: < 100 nM
- Ki [2, 3]: < 0.1 nM

SMILES: Cc1ccnc(C(NC(=O)c2cc(Cn3ccn(C)c3=N)cc(-c3c(C)ccc4[nH]ncc34)c2)C2CC2)c1 (stereo not shown) [Example 47, N-(cyclopropyl(4-methylpyridin-2-yl)methyl)-3-((2-imino-3-methyl-2,3-dihydro-1H-imidazol-1-yl)methyl)-5-(5-methyl-1H-indazol-4-yl)benzamide]
- GI50 [1]: 6700 nM
- Ki [2, 3]: 0.88 nM

SMILES: Cn1cc(-c2cc(Cn3ccn(C)c3=N)cc(C(=O)N[C@H](c3ccc(Cl)c(Cl)c3)C3CC3)c2)c(C(F)(F)F)n1 [Example 211]
- GI50 [1]: < 100 nM
- Ki [2, 3]: < 0.1 nM

SMILES: CCn1cc(-c2cc(CN3CCN(C)C3=N)cc(C(=O)N[C@H](c3ccc(F)c(C)c3)C3CC3)c2)c(C(F)(F)F)n1 [Example 212, (S)—N-(Cyclopropyl(4-fluoro-3-methylphenyl)methyl)-3-(1-ethyl-3-(trifluoromethyl)-1H-pyrazol-4-yl)-5-((2-imino-3-methylimidazolidin-1-yl)methyl)benzamide]
- GI50 [1]: < 100 nM
- Ki [2]: < 0.1 nM

SMILES: CCn1cc(-c2cc(Cn3ccsc3=N)cc(C(=O)N[C@H](c3ccc(F)c(C)c3)C3CC3)c2)c(C(F)(F)F)n1 [Example 320, (S)—N-(Cyclopropyl(4-fluoro-3-methylphenyl)methyl)-3-(1-ethyl-3-(trifluoromethyl)-1H-pyrazol-4-yl)-5-((2-iminothiazol-3(2H)-yl)methyl)benzamide]
- GI50 [1]: < 100 nM
- Ki [2, 3]: < 0.1 nM

SMILES: Cc1cc([C@@H](NC(=O)c2cc(Cn3ccn(C)c3=N)cc(-c3ccc(F)cc3C(F)(F)F)c2)C2CC2)ccc1F [Example 188, (S)—N-(Cyclopropyl(4-fluoro-3-methylphenyl)methyl)-4′-fluoro-5-((2-imino-3-methyl-2,3-dihydro-1H-imidazol-1-yl)methyl)-2′-(trifluoromethyl)-[1,1′-biphenyl]3-carboxamide]
- GI50 [1]: < 100 nM
- Ki [2]: < 0.1 nM

SMILES: CCn1cc(-c2cc(Cn3ccoc3=N)cc(C(=O)N[C@H](c3ccc(F)c(Cl)c3)C3CC3)c2)c(C(F)(F)F)n1 [Example 298, (S)—N-((3-Chloro-4-fluorophenyl)(cyclopropyl)methyl)-3-(1-ethyl-3-(trifluoromethyl)-1H-pyrazol-4-yl)-5-((2-iminooxazol-3(2H)-yl)methyl)benzamide]
- GI50 [1]: < 100 nM
- Ki [2, 3]: < 0.1 nM

SMILES: CCn1cc(-c2cc(CN3CCSC3=N)cc(C(=O)N[C@H](c3ccc(F)c(C)c3)C3CC3)c2)c(C(F)(F)F)n1 [Example 312, (S)—N-(Cyclopropyl (4-fluoro-3-methylphenyl)methyl)-3-(1-ethyl-3-(trifluoromethyl)-1H-pyrazol-4-yl)-5-((2-iminothiazolidin-3-yl)methyl)benzamide]
- GI50 [1]: < 100 nM
- Ki [2, 3]: < 0.1 nM

SMILES: COc1cc(CNC(=O)c2cc(Cn3ccn(C)c3=N)cc(-c3ncc(F)cc3C)c2)cc(OC)c1 [Example 67, N-(3,5-Dimethoxybenzyl)-3-(5-fluoro-3-methylpyridin-2-yl)-5-((2-imino-3-methyl-2,3-dihydro-1H-imidazol-1-yl)methyl)benzamide]
- GI50 [1]: 3800 nM
- Ki [2, 4]: 3.9 nM

SMILES: Cc1ccc2[nH]ncc2c1-c1cc(Cn2ccn(C)c2=N)cc(C(=O)NCc2ccc(Cl)c(Cl)c2)c1 [Example 27, N-(3,4-Dichlorobenzyl)-3-((2-imino-3-methyl-2,3-dihydro-1H-imidazol-1-yl)methyl)-5-(5-methyl-1H-indazol-4-yl)benzamide]
- GI50 [1]: 3100 nM
- Ki [2, 3]: 1.5 nM

SMILES: Cc1cc([C@@H](NC(=O)c2cc(Cn3ccoc3=N)cc(-c3ccc(F)cc3C(F)F)c2)C2CC2)ccc1F [Example 274, (S)—N-(Cyclopropyl(4-fluoro-3-methylphenyl)methyl)-2′-(difluoromethyl)-4′-fluoro-5-((2-iminooxazol-3(2H)-yl)methyl)-[1,1′-biphenyl]-3-carboxamide]
- GI50 [1]: < 100 nM
- Ki [2, 3]: < 0.1 nM

SMILES: N=C1CCCN1Cc1cc(C(=O)N[C@H](c2ccc(F)c(Cl)c2)C2CC2)cc(-c2cccnc2C(F)(F)F)c1 [Example 340, (S)—N-((3-Chloro-4-fluorophenyl)(cyclopropyl)methyl)-3-((2-iminopyrrolidin-1-yl)methyl)-5-(2-(trifluoromethyl)pyridin-3-yl)benzamide]
- GI50 [1]: < 100 nM
- Ki [2, 3]: < 0.1 nM

SMILES: COc1cc(OC)cc(C(NC(=O)c2cc(Cn3ccn(C)c3=N)cc(-c3ncc(F)cc3C)c2)C2CC2)c1 (stereo not shown) [Example 68, N-(Cyclopropyl(3,5-dimethoxyphenyl)methyl)-3-(5-fluoro-3-methylpyridin-2-yl)-5-((2-imino-3-methyl-2,3-dihydro-1H-imidazol-1-yl)methyl)benzamide]
- GI50 [1]: 2700 nM
- Ki [2, 4]: 0.35 nM

SMILES: Cn1cc(-c2cc(Cn3ccoc3=N)cc(C(=O)N[C@H](c3ccc(Cl)c(Cl)c3)C3CC3)c2)c(C(F)(F)F)n1 [Example 268, (S)—N-(Cyclopropyl(3,4-dichlorophenyl)methyl)-3-((2-iminooxazol-3(2H)-yl)methyl)-5-(1-methyl-3-(trifluoromethyl)-1 t-pyrazol-4-yl)benzamide]
- GI50 [1]: < 100 nM
- Ki [2, 4]: < 0.1 nM

SMILES: Cc1cc([C@@H](NC(=O)c2cc(Cn3ccn(C4CC4)c3=N)cc(-c3cn(C)nc3C(F)(F)F)c2)C2CC2)ccc1F [Example 142, (S)—N-(Cyclopropyl(4-fluoro-3-methylphenyl)methyl)-3-((3-cyclopropyl-2-imino-2,3-dihydro-1H-imidazol-1-yl)methyl)-5-(1-methyl-3-(trifluoromethyl)-1H-pyrazol-4-yl)benzamide]
- GI50 [1]: < 100 nM
- Ki [2, 3]: < 0.1 nM

SMILES: Cc1nc(F)ccc1-c1cc(Cn2ccn(C)c2=N)cc(C(=O)NCc2ccc(Cl)c(Cl)c2)c1 [Example 1, N-(3,4-Dichlorobenzyl)-3-(6-fluoro-2-methylpyridin-3-yl)-5-((2-imino-3-methyl-2,3-dihydro-1H-imidazol-1-yl)methyl)benzamide]
- GI50 [1]: 300 nM
- Ki [2, 3]: < 0.1 nM

SMILES: Cc1cc([C@@H](NC(=O)c2cc(Cn3ccsc3=N)cc(-c3cn(C(C)C)nc3C(F)(F)F)c2)C2CC2)ccc1F [Example 322, (S)—N-(Cyclopropyl(4-fluoro-3-methylphenyl)methyl)-3-((2-iminothiazol-3(2H)-yl)methyl)-5-(1-isopropyl-3-(trifluoromethyl)-1H-pyrazol-4-yl)benzamide]
- GI50 [1]: 150 nM
- Ki [2, 4]: < 0.1 nM
